Reference: patent US8754234B2, “Chiral 2-(benzylsulfinyl)thiazole derivatives and 2-[(1H-pyrazol-4-ylmethyl)sulfinyl]thiazole derivatives, processes for their preparation and their use as herbicides and plant growth regulators” (Bayer Cropscience AG, priority 2007, dated 2014)

Columns and labels:
Format in all cases: in vivo
[1] = tested on: Alopecurus myosuroides (black-grass); test: Pre-emergence herbicidal effect, black-grass; details: after about 3 weeks
Text: (§1) Seeds of monocotyledonous or dicotyledonous weed plants or crop plants are placed in sandy loam in wood-fiber pots and covered with soil. The compounds according to the invention, formulated in the form of wettable powders (WP), are then applied as aqueous suspension at a water application rate of 600 l/ha (converted) with the addition of 0.2% of wetting agent to the surface of the covering soil. After the treatment, the pots are placed in a greenhouse and kept under good growth conditions for the test plants. After about 3 weeks, the effect of the preparations is scored visually in comparison with untreated controls (herbicidal effect in percent (%): 100% activity=the plants have died, 0% activity=like control plants).

[2] = tested on: Setaria viridis (green foxtail); test: Pre-emergence herbicidal effect, green foxtail; details: after about 3 weeks
Text: as §1

[3] = tested on: Brassica napus (winter rape); test: Pre-emergence crop plant compatibility, winter rape; details: after about 3 weeks
Text: as §1

[4] = tested on: Lolium multiflorum (Italian ryegrass); test: Pre-emergence herbicidal effect, Italian ryegrass; details: after about 3 weeks
Text: as §1

[5] = tested on: Echinochloa crus-galli (barnyard grass); test: Pre-emergence herbicidal effect, barnyard grass; details: after about 3 weeks
Text: as §1

[6] = tested on: Triticum aestivum (summer wheat); test: Pre-emergence crop plant compatibility, summer wheat; details: scored visually after about 3 weeks
Text: as §1

[7] = tested on: Avena fatua, Stellaria media, Echinochloa crus galli, Lolium multiflorum, Setaria viridis, Abutilon theophrasti, Amaranthus retroflexus, Viola tricolor …; test: Pre-emergence herbicidal effect, harmful plants; details: pre-emergence method, application rate of 0.32 kg and less of active substance per hectare
Text: as §1

[8] = tested on: Viola tricolor (wild pansy); test: Pre-emergence herbicidal effect, wild pansy; details: after about 3 weeks
Text: as §1

[9] = tested on: Avena fatua, Echinochloa crus galli, Lolium multiflorum, Setaria viridis and Alopecurus myosuroides; test: Post-emergence herbicidal effect, harmful plants; details: post-emergence method, application rate of 0.32 kg and less of active substance per hectare
Procedure: (§2) Seeds of monocotyledonous and dicotyledonous weed and crop plants are placed in sandy loam in wood fibre pots, covered with soil and cultivated in a greenhouse under good growth conditions. 2 to 3 weeks after sowing, the test plants are treated at the one-leaf stage. The compounds according to the invention, formulated in the form of wettable powders (WP), are then applied as aqueous suspension at a water application rate of 600 l/ha (converted) with the addition of 0.2% of wetting agent to the green parts of the plants. After the test plants have been kept in the greenhouse under optimum growth conditions for about 3 weeks, the activity of the preparations is rated visually in comparison to untreated controls (herbicidal activity in percent (%): 100% activity=the plants have died, 0% activity=like control plants).

Polygunum convolvulus = test: Post-emergence herbicidal effect, Polygunum convolvulus; details: after about 3 weeks
Procedure: as §2

Stellaria media = test: Post-emergence herbicidal effect, Stellaria media; details: after about 3 weeks
Procedure: as §2

Avena fatua = test: Post-emergence herbicidal effect, Avena fatua; details: after about 3 weeks
Procedure: as §2

[10] = tested on: Lolium multiflorum (Italian ryegrass); test: Post-emergence herbicidal effect, Italian ryegrass; details: after about 3 weeks
Procedure: as §2

[11] = tested on: Setaria viridis (green foxtail); test: Post-emergence herbicidal effect, green foxtail; details: after about 3 weeks
Procedure: as §2

Zea mays (corn) = test: Post-emergence crop plant compatibility, corn; details: after about 3 weeks
Procedure: as §2

[12] = 20 g of active compound/ha, formula (Ib) table
[13] = 80 g of active compound/ha, formula (Ib) table
[14] = 20 g of active compound/ha, formula (Ia) table
[15] = 80 g of active compound/ha, formula (Ia) table

Structure (SMILES): Cn1nc(C(F)(F)F)c(C[S+]([O-])c2ncc(Br)s2)c1OC(F)F (racemic) [Racemate of 2637 (S config.) and 3725 (R config.), 5-bromo-2-({[5-(difluoromethoxy)-1-methyl-3-(trifluoromethyl)-1H-pyrazol-4-yl]methyl}sulfinyl)-1,3-thiazole]
- herbicidal effect in percent, ALOMY ([1]; 20 g of active compound/ha): 30%
- herbicidal effect in percent, ALOMY ([1]; 80 g of active compound/ha): 90%
- herbicidal effect in percent, SETVI [2, 12]: 0%
- herbicidal effect in percent, SETVI [2, 13]: 80%
- herbicidal effect in percent, BRSNW ([3]; 20 g of active compound/ha): 0%
- herbicidal effect in percent, BRSNW ([3]; 80 g of active compound/ha): 0%
- herbicidal effect in percent, LOLMU [4, 12]: 0%
- herbicidal effect in percent, LOLMU [4, 13]: 80%

Structure (SMILES): [O-][S@@+](Cc1c(Cl)cccc1Cl)c1ncc(Cl)s1 [Compound 185]
- herbicidal effect in percent, ECHCG ([5]; 20 g of active compound/ha): 90%
- herbicidal effect in percent, ECHCG ([5]; 80 g of active compound/ha): 100%
- herbicidal effect in percent, TRZAS ([6]; 20 g of active compound/ha): 0%
- herbicidal effect in percent, TRZAS ([6]; 80 g of active compound/ha): 10%
- herbicidal activity against harmful plants [7]: very good herbicidal activity
- herbicidal effect in percent, VIOTR ([8]; 20 g of active compound/ha): 60%
- herbicidal effect in percent, VIOTR ([8]; 80 g of active compound/ha): 70%
- herbicidal activity against harmful plants [9]: very good herbicidal activity
- herbicidal effect in percent, SETVI [2, 14]: 70%
- herbicidal effect in percent, SETVI [2, 15]: 100%
- herbicidal effect in percent, LOLMU [4, 14]: 70%
- herbicidal effect in percent, LOLMU [4, 15]: 90%

Structure (SMILES): [O-][S@@+](Cc1c(F)cccc1F)c1ncc(Br)s1 [Compound 259, 5-Bromo-2-[(S)-(2,6-difluorobenzyl)sulfinyl]-1,3-thiazole]
- herbicidal activity against harmful plants [7]: very good herbicidal activity
- herbicidal activity against harmful plants [9]: very good herbicidal activity

Structure (SMILES): [O-][S@@+](Cc1c(Cl)cccc1Cl)c1ncc(Br)s1 [Compound 270]
- herbicidal activity against harmful plants [7]: very good herbicidal activity
- herbicidal activity against harmful plants [9]: very good herbicidal activity

Structure (SMILES): [O-][S@+](Cc1c(Cl)cccc1Cl)c1ncc(Cl)s1 [Compound 1375]
- herbicidal effect in percent, ECHCG ([5]; 20 g of active compound/ha): 0%
- herbicidal effect in percent, ECHCG ([5]; 80 g of active compound/ha): 80%
- herbicidal effect in percent, TRZAS ([6]; 20 g of active compound/ha): 0%
- herbicidal effect in percent, TRZAS ([6]; 80 g of active compound/ha): 0%
- herbicidal activity against harmful plants [7]: very good herbicidal activity
- herbicidal effect in percent, VIOTR ([8]; 20 g of active compound/ha): 60%
- herbicidal effect in percent, VIOTR ([8]; 80 g of active compound/ha): 80%
- herbicidal activity against harmful plants [9]: very good herbicidal activity
- herbicidal effect in percent, SETVI [2, 14]: 0%
- herbicidal effect in percent, SETVI [2, 15]: 20%
- herbicidal effect in percent, LOLMU [4, 14]: 0%
- herbicidal effect in percent, LOLMU [4, 15]: 60%

Structure (SMILES): [O-][S@+](Cc1c(F)cccc1F)c1ncc(Br)s1 [Compound 1449, 5-bromo-2-[(R)-(2,6-difluorobenzyl)sulfinyl]-1,3-thiazole]
- herbicidal activity against harmful plants [7]: very good herbicidal activity
- herbicidal activity against harmful plants [9]: very good herbicidal activity

Structure (SMILES): [O-][S@+](Cc1c(Cl)cccc1Cl)c1ncc(Br)s1 [Compound 1460]
- herbicidal activity against harmful plants [7]: very good herbicidal activity

Structure (SMILES): Cn1nc(C(F)(F)F)c(C[S@+]([O-])c2ncc(Cl)s2)c1OC(F)F [Compound 2555]
- herbicidal activity against harmful plants [7]: very good herbicidal activity
- herbicidal activity against harmful plants [9]: very good herbicidal activity

Structure (SMILES): Cn1nc(C(F)(F)F)c(C[S@+]([O-])c2ncc(Br)s2)c1Cl [Compound 2632, 5-Bromo-2-[(S)-{[5-chloro-1-methyl-3-(trifluoromethyl)-1H-pyrazol-4-yl]methyl}sulfinyl]-1,3-thiazole]
- herbicidal activity against harmful plants [7]: very good herbicidal activity
- herbicidal activity against harmful plants [9]: very good herbicidal activity

Structure (SMILES): Cn1nc(C(F)(F)F)c(C[S@+]([O-])c2ncc(Br)s2)c1OC(F)F [Compound 2637, 5-Bromo-2-[(S)-{[5-(difluoromethoxy)-1-methyl-3-(trifluoromethyl)-1H-pyrazol-4-yl]methyl}sulfinyl]-1,3-thiazole]
- herbicidal effect in percent, ALOMY ([1]; 20 g of active compound/ha): 60%
- herbicidal effect in percent, ALOMY ([1]; 80 g of active compound/ha): 90%
- herbicidal activity against harmful plants [7]: very good herbicidal activity
- herbicidal activity against harmful plants [9]: very good herbicidal activity
- herbicidal effect in percent, SETVI [2, 12]: 80%
- herbicidal effect in percent, SETVI [2, 13]: 90%
- herbicidal effect in percent, BRSNW ([3]; 20 g of active compound/ha): 0%
- herbicidal effect in percent, BRSNW ([3]; 80 g of active compound/ha): 0%
- herbicidal effect in percent, LOLMU [4, 12]: 10%
- herbicidal effect in percent, LOLMU [4, 13]: 100%

Structure (SMILES): Cn1nc(C(F)(F)F)c(C[S@+]([O-])c2ncc(Br)s2)c1OCC(F)(F)F [Compound 2640]
- herbicidal activity in percent, POLCO (Polygunum convolvulus; 20 g of active compound/ha): 20%
- herbicidal activity in percent, POLCO (Polygunum convolvulus; 80 g of active compound/ha): 100%
- herbicidal activity against harmful plants [7]: very good herbicidal activity
- herbicidal activity in percent, STEME (Stellaria media; 20 g of active compound/ha): 10%
- herbicidal activity in percent, STEME (Stellaria media; 80 g of active compound/ha): 90%
- herbicidal activity in percent, AVEFA (Avena fatua; 20 g of active compound/ha): 20%
- herbicidal activity in percent, AVEFA (Avena fatua; 80 g of active compound/ha): 90%
- herbicidal activity against harmful plants [9]: very good herbicidal activity
- herbicidal activity in percent, LOLMU ([10]; 20 g of active compound/ha): 60%
- herbicidal activity in percent, LOLMU ([10]; 80 g of active compound/ha): 100%
- herbicidal activity in percent, SETVI ([11]; 20 g of active compound/ha): 100%
- herbicidal activity in percent, SETVI ([11]; 80 g of active compound/ha): 100%
- herbicidal activity in percent, ZEAMX (Zea mays (corn); 20 g of active compound/ha): 0%
- herbicidal activity in percent, ZEAMX (Zea mays (corn); 80 g of active compound/ha): 0%

Structure (SMILES): Cn1nc(C(F)(F)F)c(C[S@+]([O-])c2ncc(I)s2)c1OC(F)F [Compound 2719]
- herbicidal activity against harmful plants [7]: very good herbicidal activity
- herbicidal activity against harmful plants [9]: very good herbicidal activity

Structure (SMILES): Cn1nc(C(F)(F)F)c(C[S@@+]([O-])c2ncc(Cl)s2)c1OC(F)F [Compound 3643]
- herbicidal activity against harmful plants [7]: very good herbicidal activity
- herbicidal activity against harmful plants [9]: very good herbicidal activity

Structure (SMILES): Cn1nc(C(F)(F)F)c(C[S@@+]([O-])c2ncc(Br)s2)c1Cl [Compound 3720, 5-bromo-2-[(R)-{[5-chloro-1-methyl-3-(trifluoromethyl)-1H-pyrazol-4-yl]methyl}sulfinyl]-1,3-thiazole]
- herbicidal activity against harmful plants [7]: very good herbicidal activity
- herbicidal activity against harmful plants [9]: very good herbicidal activity

Structure (SMILES): Cn1nc(C(F)(F)F)c(C[S@@+]([O-])c2ncc(Br)s2)c1OC(F)F [Compound 3725, 5-bromo-2-[(R)-{[5-(difluoromethoxy)-1-methyl-3-(trifluoromethyl)-1H-pyrazol-4-yl]methyl}sulfinyl]-1,3-thiazole]
- herbicidal effect in percent, ALOMY ([1]; 20 g of active compound/ha): 0%
- herbicidal effect in percent, ALOMY ([1]; 80 g of active compound/ha): 20%
- herbicidal activity against harmful plants [7]: very good herbicidal activity
- herbicidal activity against harmful plants [9]: very good herbicidal activity
- herbicidal effect in percent, SETVI [2, 12]: 0%
- herbicidal effect in percent, SETVI [2, 13]: 0%
- herbicidal effect in percent, BRSNW ([3]; 20 g of active compound/ha): 0%
- herbicidal effect in percent, BRSNW ([3]; 80 g of active compound/ha): 0%
- herbicidal effect in percent, LOLMU [4, 12]: 0%
- herbicidal effect in percent, LOLMU [4, 13]: 0%
